This is an account of results in patent publication US12692235B2, “Fused ring compound and application thereof” (WUHAN LL SCIENCE AND TECHNOLOGY DEVELOPMENT CO., LTD., priority 2019, dated 2026).

What is called IC50 is the midpoint of a concentration-inhibition curve.

The subject of experiment [1] is Male Dunkin Hartley guinea pigs. Nature of the experiment: Simple citric acid cough model. Type of experiment: in vivo. The note with it: guinea pig; for Average cough times: 17.5% citric acid. The method, then: Male Dunkin Hartley guinea pigs (300-350 g) were placed in an animal atomization box, and then the door of the atomization box was closed while the ultrasonic atomizer (Guangdong Yuehua) was turned on. 17.5% citric acid gas was introduced into the atomization box at a maximum atomization rate (about 2 mL/min) for 20 s, and coughs of the animals within 10 min were continuously observed from the time of the start of atomization. During the 10-min observation, coughs of the animals needed to be counted manually, and the number of coughs were judged according to cough postures of the guinea pigs, such as abdominal twitching, mouth opening, and head inclining downward abruptly. The number of coughs during the first 5 min and that during 10 min were recorded, and the cough latency of the guinea pigs, namely the time from the initiation of citric acid induction to the appearance of the 1st cough, was also recorded.

In experiment [2] the target is T1, hP2X4 (human purinergic P2X receptor subtype 4) (Homo sapiens, UniProt Q99571).
T1 sequence (Q99571 1-404 isoform Q99571-2): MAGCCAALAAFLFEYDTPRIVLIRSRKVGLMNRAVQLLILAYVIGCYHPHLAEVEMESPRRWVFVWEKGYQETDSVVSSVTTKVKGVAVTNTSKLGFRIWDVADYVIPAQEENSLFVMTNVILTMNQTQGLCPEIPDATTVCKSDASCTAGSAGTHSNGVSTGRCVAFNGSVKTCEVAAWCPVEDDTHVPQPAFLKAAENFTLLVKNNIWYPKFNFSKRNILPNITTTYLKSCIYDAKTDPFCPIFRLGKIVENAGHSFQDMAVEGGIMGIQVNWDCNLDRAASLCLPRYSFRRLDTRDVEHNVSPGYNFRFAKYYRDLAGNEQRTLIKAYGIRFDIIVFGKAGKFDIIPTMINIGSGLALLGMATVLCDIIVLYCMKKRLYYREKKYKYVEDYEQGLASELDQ
The note with it: P2X4 IC50 (nM), HEK293 cells stably expressing hP2X4; agonist BZ-ATP 2.5 μM; FLIPR calcium.
Protocol: Cells at 400,000 cells/mL were seeded into a 384-well plate (10,000 cells/well) 18-24 h prior to the FLIPR experiment and then incubated overnight in a cell incubator. […] Each well was added with 20 μL of 0.5×Calcium 6 fluorescent dye (Molecular Devices, R8190) and then the cells were subjected to dye-loading incubation at 37° C. for 1.5 h. Each well was added with 10 μL of respective test compound (dissolved in DMSO at a concentration of 10 mM and serially diluted with buffer) or vehicle and the mixture was equilibrated for 30 min at room temperature.

[3] abbreviates: 60 mg/kg group, before administration.
Where [4] appears, read: citric acid, 20 mg/kg and 60 mg/kg, dose-dependent, vs vehicle group or before administration.

`COc1nccc2c(S(N)(=O)=O)cc(NC(=O)Cc3ccccc3Cl)cc12` [Compound 1, 2-(2-chlorophenyl)-N-(1-methoxy-5-sulfamoylisoquinolin-7-yl)acetamide]: the Average cough times in experiment [1] (20 mg/kg group, before administration) came to 19.00; in experiment [1] (20 mg/kg, after administration), 11.22; in experiment [1] (setting [3]), 19.40; in experiment [1] (60 mg/kg, after administration) it was 10.50; in experiment [1] (100 mg/kg group, before administration), 19.90; in experiment [1] (100 mg/kg, after administration), 8.60. The “Cough inhibition rate Vs basic value (%)” value in experiment [1] (citric acid, 20 mg/kg) was 40.94%; in experiment [1] (citric acid, 60 mg/kg) it was 45.88%; in experiment [1] (citric acid, 100 mg/kg), 56.78%. The “Cough inhibition rate Vs vehicle (%)” value in experiment [1] (citric acid, 20 mg/kg) came out at 38.41%; in experiment [1] (citric acid, 60 mg/kg), 42.38%; in experiment [1] (citric acid, 100 mg/kg), 52.80%. Also, in experiment [1] (setting [4]), the cough latency result is listed as “prolong the cough latency”. For the same compound, the number of coughs result in experiment [1] (setting [4]) is reported as “reduce the number of coughs”. Further, in experiment [1] (citric acid, 60 mg/kg), the “drug effect compared with dextromethorphan at the same dosage” value was “no significant difference in the drug effect compared with the positive compound dextromethorphan”. Besides, in experiment [2], the IC50 was below 10 nM.
Consider `COc1nccc2c(S(N)(=O)=O)cc(NC(=O)Cc3ccccc3OC(F)(F)F)cc12` [Compound 96, N-(1-methoxy-5-sulfamoylisoquinolin-7-yl)-2-(2-(trifluoromethoxy)phenyl)acetamide], for which the IC50 in experiment [2] lay within 200 to 5000 nM.
For the compound `CC(C)Nc1cc2c(S(N)(=O)=O)cc(NC(=O)Cc3ccccc3Cl)cc2cn1` [Compound 83, 2-(2-chlorophenyl)-N-(3-(isopropylamino)-5-sulfamoylisoquinolin-7-yl)acetamide], in experiment [2], the IC50 fell in the range of 50 to 200 nM.
Consider `CC(C)c1nccc2c(S(N)(=O)=O)cc(NC(=O)Cc3ccccc3Cl)cc12` [Compound 24, 2-(2-chlorophenyl)-N-(1-isopropyl-5-sulfamoylisoquinolin-7-yl)acetamide], for which, in experiment [2], the IC50 is below 10 nM.
Regarding `NS(=O)(=O)c1cc(NC(=O)Cc2ccccc2Cl)cc2c(OC3CCCC3)nccc12` [Compound 13], in experiment [2], the IC50 was 10 to 50 nM.
With `COc1ccc2c(c1)[C@]13CCCC[C@@H]1[C@H](C2)N(C)CC3` [Dextromethorphan, dextromethorphan, reference compound], the Average cough times is listed as 19.70 in experiment [1] (setting [3]) and 11.20 in experiment [1] (60 mg/kg, after administration). The “Cough inhibition rate Vs basic value (%)” value in experiment [1] (citric acid, 60 mg/kg) came out at 43.15%. In addition, the “Cough inhibition rate Vs vehicle (%)” value in experiment [1] (citric acid, 60 mg/kg) is 38.54%.
As for `NS(=O)(=O)c1cc(NC(=O)Cc2ccccc2Cl)cc2c(CF)nccc12` [Compound 56], the IC50 in experiment [2] was in the range of 50 to 200 nM.
With `NS(=O)(=O)c1cc(NC(=O)Cc2ccccc2Cl)cc2c1CCN(c1ccccc1)C2` [Compound 104, 2-(2-chlorophenyl)-N-(2-phenyl-5-sulfamoyl-1,2,3,4-tetrahydroisoquinolin-7-yl)acetamide], the IC50 in experiment [2] was in the range of 50 to 200 nM.
On to `CC#Cc1ccc2c(S(N)(=O)=O)cc(NC(=O)Cc3ccccc3Cl)cc2n1` [Compound 87, 2-(2-chlorophenyl)-N-(2-(prop-1-yn-1-yl)-5-sulfamoylquinolin-7-yl)acetamide], for which, in experiment [2], the IC50 was in the range of 10 to 50 nM.
For the compound `CC(C)COc1nccc2c(S(N)(=O)=O)cc(NC(=O)Cc3ccccc3Cl)cc12` [Compound 14, 2-(2-chlorophenyl)-N-(1-isobutoxy-5-sulfamoylisoquinolin-7-yl)acetamide], the IC50 in experiment [2] was 10 to 50 nM.
On the same count and under the same terms, then `NS(=O)(=O)c1cc(NC(=O)Cc2ccccc2Cl)cc2nc(N3CCCCC3)ccc12` [Compound 67, 2-(2-chlorophenyl)-N-(2-(piperidin-1-yl)-5-sulfamoylquinolin-7-yl)acetamide], with 200 to 5000 nM.
On to `NS(=O)(=O)c1cc(NC(=O)Cc2ccccc2Cl)cc2cncnc12` [Compound 40, 2-(2-chlorophenyl)-N-(8-sulfamoylquinazolin-6-yl)acetamide], for which the IC50 in experiment [2] fell in the range of 50 to 200 nM.
On the same count and under the same terms, then `N#Cc1nccc2c(S(N)(=O)=O)cc(NC(=O)Cc3ccccc3Cl)cc12` [Compound 90], with 50 to 200 nM.
As for `NS(=O)(=O)c1cc(NC(=O)Cc2ccccc2Cl)cc2cnc(C3CC3)cc12` [Compound 21, 2-(2-chlorophenyl)-N-(3-cyclopropyl-5-sulfamoylisoquinolin-7-yl)acetamide], the IC50 in experiment [2] is below 10 nM.
With `Cc1ccc(N2CCc3c(cc(NC(=O)Cc4ccccc4Cl)cc3S(N)(=O)=O)C2)nc1` [Compound 121, 2-(2-chlorophenyl)-N-(2-(5-methylpyridin-2-yl)-5-sulfamoyl-1,2,3,4-tetrahydroisoquinoline-7-yl)acetamide], in experiment [2], the IC50 fell in the range of 50 to 200 nM.
On the same count and under the same terms, then `NS(=O)(=O)c1cc(NC(=O)Cc2ccccc2Cl)cc2c1CCN(C(=O)c1ccccc1)C2` [Compound 106, N-(2-benzoyl-5-sulfamoyl-1,2,3,4-tetrahydroisoquinolin-7-yl)-2-(2-chlorophenyl)acetamide], with 10 to 50 nM; and `COc1ccc(Nc2ccc3c(S(N)(=O)=O)cc(NC(=O)Cc4ccccc4Cl)cc3n2)cc1` [Trifluoroacetate of compound 71, 2-(2-chlorophenyl)-N-(2-((4-methoxyphenyl)amino)-5-sulfamoylquinolin-7-yl)acetamide], with 200 to 5000 nM.
